Laboratory results taken from US20260171190A1, “ASSESSMENT OF GR CELLULAR SIGNALING PATHWAY ACTIVITY USING MATHEMATICAL MODELLING OF TARGET GENE EXPRESSION” (priority 2021, published 2026).
Like-named read-outs stand apart in the source and are kept apart here.

Test system: GR cellular signaling pathway
Experimental: Triple Negative Breast cancer cell line (MDA-MB-231) treated for 4, 8, 12 hrs with vehicle, 100 nM dexamethasone, 100 nM dexamethasone and 100 nM mifrepristone (GCR antagonist), or 100 nM dexamethasone and 100 nM CORT108297 (GCR antagonist).
GR pathway activity scores are presented on a normalized 0-100 scale.

SMILES	antagonism of the dexamethasone effect on GR pathway activity (MDA-MB-231, 100 nM dexamethasone and 100 nM antagonist, 4, 8, 12 hrs)	antagonism of the dexamethasone effect on GR pathway activity
CCOC[C@]12Cc3cnn(-c4ccc(F)cc4)c3C=C1CCN(S(=O)(=O)c1ccc(C(F)(F)F)cc1)C2 [CORT108297]	minimally effective	–
CC#C[C@]1(O)CC[C@H]2[C@@H]3CCC4=CC(=O)CCC4=C3[C@@H](c3ccc(N(C)C)cc3)C[C@@]21C [Mifrepristone]	–	strong dexamethasone antagonist
